Test system: MV-4-11 cells
Test: Gene expression microarray analysis (Affymetrix PrimeView) and GSEA
Format: cell-based, human
Design: RFU PODN (11730768_x_at) / Fold change /veh PODN (11730768_x_at) / RFU LINC00158 (11744669_a_at) / Fold change /veh LINC00158 (11744669_a_at) / RFU DUSP10 (11751237_a_at) / Fold change /veh DUSP10 (11751237_a_at) / RFU ID3 (11757404_x_at) / Fold change /veh ID3 (11757404_x_at) / RFU PLEKHG5 (11737974_s_at) / Fold change /veh PLEKHG5 (11737974_s_at) / RFU LRRC4B (11730491_at) / Fold change /veh LRRC4B (11730491_at) / RFU GIMAP4 (11747438_a_at) / Fold change /veh GIMAP4 (11747438_a_at) / RFU KRT8 (11758183_x_at) / Fold change /veh KRT8 (11758183_x_at) / RFU CNN1 (11734310_a_at) / Fold change /veh CNN1 (11734310_a_at) / RFU VPS37D (11726825_at) / Fold change /veh VPS37D (11726825_at) / RFU C10orf10 (11716522_x_at) / Fold change /veh C10orf10 (11716522_x_at) / RFU KIR2DL2 /// KIR2DL4 /// KIR2DL5A /// KIR2DL5B /// KIR2DS1 /// KIR2DS2 /// KIR2DS3 /// KIR2DS4 /// KIR3DL3 /// KIR3DL3 /// KIR3DS1 (11738374_at) / Fold change /veh KIR2DL2 /// KIR2DL4 /// KIR2DL5A /// KIR2DL5B /// KIR2DS1 /// KIR2DS2 /// KIR2DS3 /// KIR2DS4 /// KIR3DL3 /// KIR3DL3 /// KIR3DS1 (11738374_at) / RFU C1QL1 (11718748_at) / Fold change /veh C1QL1 (11718748_at) / RFU TMPRSS4 (11747572_a_at) / Fold change /veh TMPRSS4 (11747572_a_at) / RFU HAMP (11756126_x_at) / Fold change /veh HAMP (11756126_x_at) / RFU RNFT2 (11725882_a_at) / Fold change /veh RNFT2 (11725882_a_at) / RFU NR4A2 (11747474_a_at) / Fold change /veh NR4A2 (11747474_a_at) / RFU ABCC12 (11746883_a_at) / Fold change /veh ABCC12 (11746883_a_at) / RFU TMEM136 (11760407_x_at) / Fold change /veh TMEM136 (11760407_x_at) / RFU CLDN22 /// WWC2 (11732394_at) / Fold change /veh CLDN22 /// WWC2 (11732394_at) / RFU HLA-DPB1 (11760878_x_at) / Fold change /veh HLA-DPB1 (11760878_x_at) / RFU SPINT1 (11716480_a_at) / Fold change /veh SPINT1 (11716480_a_at) / RFU GAP43 (11754022_s_at) / Fold change /veh GAP43 (11754022_s_at) / RFU A4GNT (11735810_at) / Fold change /veh A4GNT (11735810_at) / RFU PRB3 (11715151_x_at) / Fold change /veh PRB3 (11715151_x_at) / RFU TUBB4B (11761932_at) / Fold change /veh TUBB4B (11761932_at) / RFU CAPN14 (11732068_a_at) / Fold change /veh CAPN14 (11732068_a_at) / RFU TMCC2 (11721928_a_at) / Fold change /veh TMCC2 (11721928_a_at) / RFU IRGQ (11745062_a_at) / Fold change /veh IRGQ (11745062_a_at) / RFU FAM174B (11720279_a_at) / Fold change /veh FAM174B (11720279_a_at) / RFU TMPRSS4 (11748680_a_at) / Fold change /veh TMPRSS4 (11748680_a_at) / RFU FAM212B (11763350_a_at) / Fold change /veh FAM212B (11763350_a_at) / RFU PLEKHG5 (11743358_a_at) / Fold change /veh PLEKHG5 (11743358_a_at) / RFU ZSCAN30 (11745921_a_at) / Fold change /veh ZSCAN30 (11745921_a_at) / RFU CMKLR1 (11741424_a_at) / Fold change /veh CMKLR1 (11741424_a_at) / RFU LOC101060620 /// MAPK8IP1 (11723275_at) / Fold change /veh LOC101060620 /// MAPK8IP1 (11723275_at) / RFU SPTSSB (11747773_x_at) / Fold change /veh SPTSSB (11747773_x_at) / RFU PRSS12 (11739890_at) / Fold change /veh PRSS12 (11739890_at) / RFU BIN1 (11741810_x_at) / Fold change /veh BIN1 (11741810_x_at) / RFU WNT11 (11732464_a_at) / Fold change /veh WNT11 (11732464_a_at) / RFU C10orf10 (11716521_a_at) / Fold change /veh C10orf10 (11716521_a_at) / RFU C5orf56 (11738089_at) / Fold change /veh C5orf56 (11738089_at) / RFU CYB561 (11721691_x_at) / Fold change /veh CYB561 (11721691_x_at) / RFU ANKRD19P (11752326_a_at) / Fold change /veh ANKRD19P (11752326_a_at) / RFU OR2T12 /// OR2T33 /// OR2T8 (11738714_s_at) / Fold change /veh OR2T12 /// OR2T33 /// OR2T8 (11738714_s_at) / RFU VCAN (11748164_a_at) / Fold change /veh VCAN (11748164_a_at) / RFU JSRP1 (11732532_at) / Fold change /veh JSRP1 (11732532_at) / RFU KRTAP10-11 (11738290_x_at) / Fold change /veh KRTAP10-11 (11738290_x_at) / RFU MYO3A (11730013_a_at) / Fold change /veh MYO3A (11730013_a_at) / RFU EBF3 (11725865_a_at) / Fold change /veh EBF3 (11725865_a_at) / RFU CAMK2N1 (11719241_x_at) / Fold change /veh CAMK2N1 (11719241_x_at) / RFU C5orf56 (11738088_a_at) / Fold change /veh C5orf56 (11738088_a_at) / RFU OLFML3 (11715873_a_at) / Fold change /veh OLFML3 (11715873_a_at) / RFU LOC100653217 /// NTM (11731650_a_at) / Fold change /veh LOC100653217 /// NTM (11731650_a_at) / RFU MAPK11 (11762145_a_at) / Fold change /veh MAPK11 (11762145_a_at) / RFU FIZ1 (11724087_x_at) / Fold change /veh FIZ1 (11724087_x_at) / RFU OASL (11726364_x_at) / Fold change /veh OASL (11726364_x_at) / RFU SOX15 (11748057_x_at) / Fold change /veh SOX15 (11748057_x_at) / RFU CD79A (11719716_a_at) / Fold change /veh CD79A (11719716_a_at) / RFU HIST1H1D (11736915_at) / Fold change /veh HIST1H1D (11736915_at) / RFU CASKIN2 (11723855_a_at) / Fold change /veh CASKIN2 (11723855_a_at) / RFU LOC730098 (11760151_x_at) / Fold change /veh LOC730098 (11760151_x_at) / RFU OR4N2 (11742367_at) / Fold change /veh OR4N2 (11742367_at) / RFU PRRT2 (11749266_a_at) / Fold change /veh PRRT2 (11749266_a_at) / RFU SNX32 (11753110_a_at) / Fold change /veh SNX32 (11753110_a_at) / RFU CDHR5 (11726645_a_at) / Fold change /veh CDHR5 (11726645_a_at) / RFU RCAN1 (11760418_a_at) / Fold change /veh RCAN1 (11760418_a_at) / RFU FAM167A (11723789_a_at) / Fold change /veh FAM167A (11723789_a_at) / RFU FAM26E (11764081_at) / Fold change /veh FAM26E (11764081_at) / RFU ISYNA1 (11749810_s_at) / Fold change /veh ISYNA1 (11749810_s_at) / RFU ACY1 (11761880_at) / Fold change /veh ACY1 (11761880_at) / RFU 11764098_at / Fold change /veh 11764098_at / RFU SAMD14 (11745864_x_at) / Fold change /veh SAMD14 (11745864_x_at) / RFU NPB (11741838_a_at) / Fold change /veh NPB (11741838_a_at) / RFU TMPRSS6 (11731388_a_at) / Fold change /veh TMPRSS6 (11731388_a_at) / RFU KRTAP10-2 (11738614_at) / Fold change /veh KRTAP10-2 (11738614_at) / RFU ARHGAP8 /// PRR5-ARHGAP8 (11727945_x_at) / Fold change /veh ARHGAP8 /// PRR5-ARHGAP8 (11727945_x_at) / RFU KRTAP5-7 /// NADSYN1 (11734609_at) / Fold change /veh KRTAP5-7 /// NADSYN1 (11734609_at) / RFU RASL12 (11751679_a_at) / Fold change /veh RASL12 (11751679_a_at) / RFU CDKN2B (11736163_a_at) / Fold change /veh CDKN2B (11736163_a_at) / RFU PRF1 (11729649_at) / Fold change /veh PRF1 (11729649_at) / RFU, ZNF638 /// ZNF638-IT1 / Fold change vs veh, ZNF638 /// ZNF638-IT1 / RFU, PANK3 / Fold change vs veh, PANK3 / RFU, SH3YL1 / Fold change vs veh, SH3YL1 / RFU, ZEB2 / Fold change vs veh, ZEB2 / RFU, NRIP1 / Fold change vs veh, NRIP1 / RFU, PTTG1IP / Fold change vs veh, PTTG1IP / RFU, CAPN2 / Fold change vs veh, CAPN2 / RFU, MED14 / Fold change vs veh, MED14 / RFU, SNORA58 / Fold change vs veh, SNORA58 / RFU, C1orf63 / Fold change vs veh, C1orf63 / RFU, LRRFIP1 / Fold change vs veh, LRRFIP1 / RFU, NDUFAF7 / Fold change vs veh, NDUFAF7 / RFU, SLC12A2 / Fold change vs veh, SLC12A2 / RFU, IBTK / Fold change vs veh, IBTK / RFU, ESF1 / Fold change vs veh, ESF1 / Fold change vs veh, TMEM50B / RFU, TAOK1 / Fold change vs veh, TAOK1 / RFU, ACBD3 / Fold change vs veh, ACBD3 / RFU, TMA16 / Fold change vs veh, TMA16 / RFU, RWDD3 / Fold change vs veh, RWDD3 / RFU, BCAT1 / Fold change vs veh, BCAT1 / RFU, EDEM3 / Fold change vs veh, EDEM3 / RFU, TMEM33 / Fold change vs veh, TMEM33 / RFU, WDR75 / Fold change vs veh, WDR75 / RFU, AHCTF1 / Fold change vs veh, AHCTF1 / RFU, TFRC / Fold change vs veh, TFRC / RFU, ZDHHC17 / Fold change vs veh, ZDHHC17 / RFU, NOM1 / Fold change vs veh, NOM1 / RFU, ARL8B / Fold change vs veh, ARL8B / RFU, ZBTB11 / Fold change vs veh, ZBTB11 / RFU, TAMM41 / Fold change vs veh, TAMM41 / RFU, KIAA1704 /// LOC100996395 / Fold change vs veh, KIAA1704 /// LOC100996395 / RFU, ING1 / Fold change vs veh, ING1 / RFU, TRMT61B / Fold change vs veh, TRMT61B / RFU, FUBP3 / Fold change vs veh, FUBP3 / RFU, TP53 / Fold change vs veh, TP53 / RFU, TNKS2 / Fold change vs veh, TNKS2 / RFU, ZFP14 / Fold change vs veh, ZFP14 / RFU, ACTR2 / Fold change vs veh, ACTR2 / RFU, PPP3R1 / Fold change vs veh, PPP3R1 / RFU, PIK3R1 / Fold change vs veh, PIK3R1 / RFU, HNRNPA1 / Fold change vs veh, HNRNPA1 / RFU, RNF170 / Fold change vs veh, RNF170 / RFU, ZNF28 / Fold change vs veh, ZNF28 / RFU, RNGTT / Fold change vs veh, RNGTT / RFU, OGT / Fold change vs veh, OGT / RFU, BRD1 / Fold change vs veh, BRD1 / RFU, MARS / Fold change vs veh, MARS / RFU, ZNF655 / Fold change vs veh, ZNF655 / RFU, FAHD1 / Fold change vs veh, FAHD1 / RFU, BDP1 / Fold change vs veh, BDP1 / RFU, LRRCC1 / Fold change vs veh, LRRCC1 / RFU, ARID1A / Fold change vs veh, ARID1A / RFU, ZNF146 / Fold change vs veh, ZNF146 / RFU, ZNF330 / Fold change vs veh, ZNF330 / RFU, GPN3 / Fold change vs veh, GPN3 / RFU, C9orf123 / Fold change vs veh, C9orf123 / RFU, N4BP2L2 / Fold change vs veh, N4BP2L2 / RFU, ARFIP1 / Fold change vs veh, ARFIP1 / RFU, FAM179B / Fold change vs veh, FAM179B / RFU, BCL10 / Fold change vs veh, BCL10 / RFU, UHRF1BP1L / Fold change vs veh, UHRF1BP1L / RFU, BET1 / Fold change vs veh, BET1 / RFU, CNOT2 / Fold change vs veh, CNOT2 / RFU, ZNF268 / Fold change vs veh, ZNF268 / Fold change vs veh, ZNF507 / RFU, DGCR2 / Fold change vs veh, DGCR2 / RFU, WDSUB1 / Fold change vs veh, WDSUB1 / Fold change vs veh, HSP90B1 /// MIR3652 / RFU, ADSS / Fold change vs veh, ADSS / RFU, GK / Fold change vs veh, GK / RFU, ZNF148 / Fold change vs veh, ZNF148 / RFU, TAF9 / Fold change vs veh, TAF9 / RFU, SLC1A5 / Fold change vs veh, SLC1A5 / RFU, SLMO2 / Fold change vs veh, SLMO2 / RFU, ABCC4 / Fold change vs veh, ABCC4 / RFU, LOC101060439 /// RAP1B / Fold change vs veh, LOC101060439 /// RAP1B / RFU, RFX7 / Fold change vs veh, RFX7 / RFU, GTPBP10 / Fold change vs veh, GTPBP10 / RFU, CNEP1R1 / Fold change vs veh, CNEP1R1 / RFU, BIVM-ERCC5 /// ERCC5 / Fold change vs veh, BIVM-ERCC5 /// ERCC5 / RFU, ILF3 / Fold change vs veh, ILF3 / RFU 11762660_at / Fold change /veh 11762660_at / RFU VCAN (11757783_s_at) / Fold change /veh VCAN (11757783_s_at) / RFU DDX43 (11728927_at) / Fold change /veh DDX43 (11728927_at) / RFU KRT8 (11758188_x_at) / Fold change /veh KRT8 (11758188_x_at) / RFU NKD1 (11759106_at) / Fold change /veh NKD1 (11759106_at) / RFU SRD5A1 (11742802_a_at) / Fold change /veh SRD5A1 (11742802_a_at) / RFU TPSAB1 /// TPSB2 (11721975_s_at) / Fold change /veh TPSAB1 /// TPSB2 (11721975_s_at) / RFU GSTM3 (11746129_a_at) / Fold change /veh GSTM3 (11746129_a_at) / RFU IL23R (11737362_x_at) / Fold change /veh IL23R (11737362_x_at) / RFU TMEM51 (11727254_a_at) / Fold change /veh TMEM51 (11727254_a_at) / RFU PIWIL2 (11732686_x_at) / Fold change /veh PIWIL2 (11732686_x_at) / RFU ORM1 (11744905_x_at) / Fold change /veh ORM1 (11744905_x_at) / RFU CCDC152 (11743942_at) / Fold change /veh CCDC152 (11743942_at) / RFU ECM1 (11717891_a_at) / Fold change /veh ECM1 (11717891_a_at) / RFU IL23R (11748794_a_at) / Fold change /veh IL23R (11748794_a_at) / RFU TNFAIP8L3 (11732012_x_at) / Fold change /veh TNFAIP8L3 (11732012_x_at) / RFU MBOAT4 (11741988_at) / Fold change /veh MBOAT4 (11741988_at) / RFU 11764193_at / Fold change /veh 11764193_at / RFU TMEM53 (11763286_at) / Fold change /veh TMEM53 (11763286_at) / RFU MAGEB2 (11727129_at) / Fold change /veh MAGEB2 (11727129_at) / RFU TMEM200A (11744735_a_at) / Fold change /veh TMEM200A (11744735_a_at) / RFU CCDC152 (11751479_a_at) / Fold change /veh CCDC152 (11751479_a_at) / RFU FAM211A (11726209_a_at) / Fold change /veh FAM211A (11726209_a_at) / RFU RGS16 (11746705_a_at) / Fold change /veh RGS16 (11746705_a_at) / RFU VCAN (11755009_s_at) / Fold change /veh VCAN (11755009_s_at) / RFU RHOB (11743442_s_at) / Fold change /veh RHOB (11743442_s_at) / RFU RGS16 (11720943_a_at) / Fold change /veh RGS16 (11720943_a_at) / RFU RGS16 (11720944_at) / Fold change /veh RGS16 (11720944_at) / RFU, VPS4B / Fold change vs veh, VPS4B / RFU, CREB1 / Fold change vs veh, CREB1 / RFU, DNAJC13 / Fold change vs veh, DNAJC13 / RFU, GNAQ / Fold change vs veh, GNAQ / RFU, CDK5R1 / Fold change vs veh, CDK5R1 / RFU, ZRANB3 / Fold change vs veh, ZRANB3 / RFU, CUL4A / Fold change vs veh, CUL4A / RFU, CCNY / Fold change vs veh, CCNY / RFU, UFL1 / Fold change vs veh, UFL1 / RFU, COG3 / Fold change vs veh, COG3 / RFU, DIAPH2 / Fold change vs veh, DIAPH2 / RFU, SKA2 / Fold change vs veh, SKA2 / RFU, AFF3 / Fold change vs veh, AFF3 / RFU, LMF1 / Fold change vs veh, LMF1 / RFU, IPO11 / Fold change vs veh, IPO11 / RFU, DFFB / Fold change vs veh, DFFB / RFU, FOXP1 / Fold change vs veh, FOXP1 / RFU, CARD8 / Fold change vs veh, CARD8 / RFU, STRN3 / Fold change vs veh, STRN3 / RFU, ADK / Fold change vs veh, ADK / RFU, RASSF2 / Fold change vs veh, RASSF2 / RFU, WIPF1 / Fold change vs veh, WIPF1 / RFU, LARP1B / Fold change vs veh, LARP1B / RFU, RASA1 / Fold change vs veh, RASA1 / RFU, RB1 / Fold change vs veh, RB1 / RFU, PPFIA1 / Fold change vs veh, PPFIA1 / RFU, MAT2A / Fold change vs veh, MAT2A / RFU, CCT5 / Fold change vs veh, CCT5 / RFU, WDR92 / Fold change vs veh, WDR92 / RFU, CUX1 / Fold change vs veh, CUX1 / RFU, TTC7A / Fold change vs veh, TTC7A / RFU, TMEM135 / Fold change vs veh, TMEM135 / RFU, DEPTOR / Fold change vs veh, DEPTOR / RFU, CPM / Fold change vs veh, CPM / RFU, DNAJB6 / Fold change vs veh, DNAJB6 / RFU, CACNA2D3 / Fold change vs veh, CACNA2D3 / RFU, DTX4 / Fold change vs veh, DTX4 / RFU, TFCP2 / Fold change vs veh, TFCP2 / RFU, GMCL1 /// GMCL1P1 / Fold change vs veh, GMCL1 /// GMCL1P1 / RFU, AEBP2 / Fold change vs veh, AEBP2 / RFU, SNHG1 /// SNORD22 /// SNORD25 /// SNORD26 /// SNORD27 /// SNORD28 /// SNORD29 /// SNORD31 / Fold change vs veh, SNHG1 /// SNORD22 /// SNORD25 /// SNORD26 /// SNORD27 /// SNORD28 /// SNORD29 /// SNORD31 / Fold change (Aza/veh), C12orf56 (ProbeSet 11735607_a_at) / Fold change (ACY-1035/veh), C12orf56 (ProbeSet 11735607_a_at) / Fold change (Aza/veh), FGFR1OP (ProbeSet 11751329_s_at) / Fold change (ACY-1035/veh), FGFR1OP (ProbeSet 11751329_s_at) / Fold change (Aza/veh), VPS36 (ProbeSet 11739960_a_at) / Fold change (ACY-1035/veh), VPS36 (ProbeSet 11739960_a_at) / RFU SYPL1 (11715823_x_at) / Fold change /veh SYPL1 (11715823_x_at) / RFU IGFBP7 (11715501_s_at) / Fold change /veh IGFBP7 (11715501_s_at) / RFU REEP3 (11722064_at) / Fold change /veh REEP3 (11722064_at) / RFU IGLL1 (11728026_x_at) / Fold change /veh IGLL1 (11728026_x_at): dose or concentration left out as unconfirmed
Conditions: ProbeSet 11738335_x_at; LIST B

Q: Which “RFU, TP53” value does the source give for `Nc1ccc(-c2cccs2)cc1NC(=O)c1ccc2c(c1)cc(C1CC1)n2CCN1CCOCC1` [ACY-1035] here?
A: The value was 73.59 RFU.

From PMC5218480 (PLoS ONE, 2017)
